“Also recorded” adds a separate entry of the source.

Holding throughout (assay type): in vivo, Caenorhabditis elegans
For assay [1], the system named is C. elegans. Put plainly: Adult life span after transient (first 24 h) Tm or 2DG supplementation. As to the method:
Gravid adult worms, initially grown on E. coli OP50 were bleached and eggs were hatched on different RNAi plates. On reaching adulthood, 50-60 young adult worms were transferred to the similar RNAi plates in triplicates and overlaid with Fluoro-deoxyuridine (FudR) to final concentration of 0.1 mg/ml of agar (2). At the 7th Day of adulthood, sick, sluggish and slow dwelling worms were removed from the life span population and the remaining were considered as the number of subjects ‘N’. Following this, number of dead worms were scored every alternate day and plotted as % survival against the number of days. Statistical analysis for survival was conducted using Mantel-Cox Log Rank test using Oasis software. Average life span was also determined using the same method and represented as Mean life span±Standard Error Mean (S.E.M).
Overnight grown bacterial culture expressing Control or test RNAi were re-inoculated in 200 ml fresh LB media and grown at 37° C. until OD600 reached 0.5-0.6. The culture was divided in two parts (A and B) in a ratio of 1:3 and cells are pelleted separately using a centrifuge (4810R, Eppendorf, Germany) at 5000 r.p.m for 10 minutes at 4° C. Pellet from part B (150 ml) of the culture was resuspended in 1×M9 buffer containing 100 μg/ml ampicillin and 1 mM IPTG to 1/10th of its initial culture volume (for 150 ml culture, 15 ml of resuspension buffer was used) and 350 μl was seeded onto each RNAi plate and left for drying at room temperature for 24 hours.
Gravid adult worms initially grown on E. coli OP50 bacteria were bleached and eggs were re-suspended in 100-200 ul of 1×M9 buffer and standardized for the number of eggs present in a particular volume.
Entire composition of cocktail (total volume 1 ml) is mentioned as follows:
Eggs were left on rotation in this cocktail at a slow speed for 24 hrs. […] They were allowed to grow till adulthood when 100 worms belonging to each treatment regime were transferred onto FuDR containing RNAi plates and life span was scored as mentioned above. iUPR^ER efficiency was also measured on Day 2 of adulthood, as mentioned previously.
Since transient up-regulation of UPR^ER was observed, experiments were conducted to see its causal role in life span extension, as observed during DR. […] After the pharmaceutical reagent was washed off, the worms were grown on solid NGM media and post-adult life span was recorded. […] This observation supports the role of hormesis, triggered by an early ER stress as a mechanism of DR-mediated life span enhancement, in the models that were tested.

Assay [2] relates to Punc-54:polyQ40:yfp worms. The experiment in a line: PolyQ aggregate number in adult worms after transient Tm exposure. The text has this:
In order to evaluate the role of DR in augmenting the ERAD and its physiological consequences, a reporter was used that expresses a stretch of 40 glutamines (Q40) tagged with a yellow fluorescent protein in C. elegans muscle. This reporter strain was crossed with eat-2(ad1116) mutant worms to generate worms carrying both the reporter transgene and the eat-2 mutation (hereafter, referred to as eat-2;PolyQ). It was observed that incorporating eat-2 mutation led to 60-80% suppression in the number of aggregates at all age points, supporting the earlier observation of alleviation in the age-associated increase in PolyQ aggregation during DR (FIG. 6A). […] Since ire-1 was a requirement for DR-mediated longevity, it was tested whether this beneficial effect conferred under DR is also dependent on this gene.
It was reported that an atypical up-regulation of UPR^ER in larvae contributes towards increased life span during DR. It was shown that pharmaceutically mimicking the transient UPR^ER up-regulation during early larval life augmented the iUPR^ER efficiency with age and increased life span. To determine whether such hormetic intervention can protect against the age-related proteostasis collapse, WT worms were exposed with a range of concentrations of Tm only during the start of larval development, as mentioned before. […]

Assay [3] relates to Phsp-4:gfp(zcIs4) worms. The experiment in a line: Induced UPR^ER (iUPR^ER) efficiency, Phsp-4:gfp fluorescence after acute Tm challenge in adulthood. Conditions: for iUPR^ER at adulthood after Tm hormesis: acute 5 mg/mL tunicamycin treatment, day 2 of adulthood. As to the method:
Transgenic Phsp-4:gfp(zcIs4) and eat-2(ad1116);Phsp-4:gfp(zcIs4) were bleached and eggs were hatched on control RNAi. Worms were allowed to grow till adulthood and then transferred onto plates overlaid with FuDR to a final concentration of 0.1 mg/ml. […] Since Tm is dissolved in 0.05% DMSO, it was used as vehicle control. After 6 hours, 50 worms from each treatment were mounted onto 2% agarose slides and visualized using Axio-Imager M2 epifluorescent microscope with a GFP filter set (Carl Zeiss, Germany) Fluorescence of ≥20 Tm-treated and untreated worms was quantified using NIH ImageJ software. Average fluorescence of treated worms was normalized to untreated worms and plotted as normalized GFP fold induction at different days of adulthood. Similar procedure was followed to compare iUPR^ER efficiency of Phsp-4:gfp(zcIs4) on control and drl-1 RNAi on different days of adulthood.
Eggs were left on rotation in this cocktail at a slow speed for 24 hrs. Following this, the hatched L1 larvae were washed 3-4 times with 1×M9 buffer to remove traces of tunicamycin and added onto seeded control RNAi or test RNAi plates containing no reagent. They were allowed to grow till adulthood when 100 worms belonging to each treatment regime were transferred onto FuDR containing RNAi plates and life span was scored as mentioned above. iUPR^ER efficiency was also measured on Day 2 of adulthood, as mentioned previously.
Since it was observed that transient ER stress using Tm at early post-embryonic stage increased life span, it was tested whether this treatment could also lead to a better iUPR^ER efficiency with age. […] Importantly, hormetic up-regulation of the ER stress response during early developmental life leads to this increased ER efficiency contributing towards enhanced longevity during DR.

On to `O=CC[C@@H](O)[C@H](O)[C@H](O)CO` [2-DG, 2-deoxy glucose], for which the “Effect on life span” value was “increased; also recorded: significantly increasing life span” in assay [1] (WT, transient 2DG 0.0625 mM first 24 hours) and “failed to increase life span; also recorded: ire-1-dependent manner” in assay [1] (ire-1(v33), transient 2DG treatment). Also, the “Life span Mean ± SEM” value in assay [1] (Wild type, 2-DG 0.0625 mM for first 24 hours) is recorded as 21.21 ± 0.37 days; in assay [1] (ire-1(v33), 2-DG 0.0625 mM for first 24 hours), 20.07 ± 0.26 days. Besides, the “Life span % Change” value is on record as 11.69% in assay [1] (Wild type, 2-DG 0.0625 vs 0 mM) and −0.64% in assay [1] (ire-1(v33), 2-DG 0.0625 vs 0 mM).

With Tunicamycin [Tm], the “Number of polyQ aggregates” value in assay [2] (Punc-54:polyQ40:yfp on control RNAi, 0.125 μg/ml and 0.25 μg/ml Tm during larval development, day 2 and day 3 of adulthood) is reported as “suppression; also recorded: significant reduction in the number of aggregates”. For the same compound, the “Number of polyQ puncta” value in assay [2] (ire-1(v33);Q40:yfp worms treated with hormetic dose of Tm (0.125 μg/ml)) is given as “significantly higher puncta at all age points”. Moreover, the figures for the “iUPR^ER at adulthood after Tm hormesis” value in assay [3] (control RNAi worms) and in assay [3] (pha-4 RNAi worms) were “even higher iUPR^ER” and “not able to increase the iUPR^ER response”, respectively. In addition, the “iUPR^ER efficiency at day 2 of adulthood” value in assay [3] (transient Tm 24 hours post-bleaching, challenge Tm 10 μg/ml for 6 hours on day 2) is recorded as “increases iUPR^ER efficiency; also recorded: higher iUPR^ER efficiency”. The “Effect on life span” value in assay [1] (WT larvae, 0.125 μg/ml Tm during first 24 hours) is on record as “sufficient to extend lifespan; also recorded: significant extension of life span”; in assay [1] (eat-2(ad1116), Tm supplementation), “cannot further increase lifespan”. Besides, the “Dependence of Tm hormesis life span extension on PHA-4” value in assay [1] (WT on control or pha-4 RNAi, Tm 0.125 μg/mL initial 24 h) was “suppressed; also recorded: dependent on PHA-4”. The “Dependence of Tm life span effect on ire-1” value in assay [1] (WT vs ire-1(v33), Tm 0.125 μg/ml initial 24 hours) is “completely dependent on ire-1”. The “Life span Mean ± SEM” value in assay [1] (Wild type (for eat-2 hormesis expt), Tm 0.125 μg/ml for first 24 hours) came to 21.58 ± 0.36 days; in assay [1] (Wild type (for ire-1 hormesis expt), Tm 0.125 μg/ml for first 24 hours), 22.02 ± 0.30 days; in assay [1] (Wild type, Tm 0.125 μg/ml for first 24 hours), 21.73 ± 0.28 days; in assay [1] (eat-2 (ad1116), Tm 0.125 μg/ml for first 24 hours) it was 25.32 ± 0.45 days; in assay [1] (ire-1(v33), Tm 0.125 μg/ml for first 24 hours), 18.64 ± 0.21 days. The “Life span % Change” value in assay [1] (Wild type (for eat-2 hormesis expt), Tm 0.125 vs 0 μg/ml) is 15.83%; in assay [1] (Wild type (for ire-1 hormesis expt), Tm 0.125 vs 0 μg/ml), 18.83%; in assay [1] (Wild type, Tm 0.125 vs 0 μg/ml), 17.78%; in assay [1] (eat-2 (ad1116), Tm 0.125 vs 0 μg/ml), −10.47%; in assay [1] (ire-1(v33), Tm 0.125 vs 0 μg/ml) it was −0.85%.

The record behind these values is patent publication US20220008449A1, “A METHOD OF MIMICKING BENEFITS OF DIETARY RESTRICTION BY TRANSIENTLY UPREGULATING ER STRESS RESPONSE” (NATIONAL INSTITUTE OF IMMUNOLOGY, priority 2018, published 2022).
